{"source": "patent US9587239B2", "about": "“Methods of identifying and treating glioblastoma” (THE TRANSLATIONAL GENOMICS RESEARCH INSTITUTE, priority 2008, dated 2017)", "key": {"T98G cells": {"test_system": "T98G cells", "assay": "Alamar Blue cell viability assay, T98G", "format": "cell-based", "details": "Homo sapiens, 48 hours", "method": "(§1) The Alamar Blue assay was used to assess viability as described previously (See Reference 29, incorporated by reference in its entirety). Briefly, 4000 cells of each population were seeded in quadruplicate wells of 96-well plastic plates in 200 μl of culture medium supplemented with 10% fetal bovine serum. Cells were treated with various conditions and the assay was developed 48 hours later. Alamar Blue was then added to the cells in a volume of 20 μl (10% of total volume) per well and the plates were incubated for 6 hours at 37° C. The plates were read on a fluorescence plate reader (excitation, 560 nm; emission, 600 nm). Averages of the fluorescence values were calculated and normalized to controls without Temozolomide."}, "SF767 cells": {"test_system": "SF767 cells", "assay": "Alamar Blue cell viability assay, SF767", "format": "cell-based", "details": "Homo sapiens, 48 hours", "method": "as §1"}}, "data": [{"smiles": "Cn1nnc2c(C(N)=O)ncn2c1=O", "note": "[Temozolomide]", "values": [{"measurement": "IC50", "setting": "T98G cells", "value": 250, "unit": "µM"}, {"measurement": "IC50", "setting": "SF767 cells", "value": 125, "unit": "µM"}]}]}
